Consider three compounds from ChEMBL document CHEMBL5038633 (J Med Chem, 2022).

Broadly, the IC50 is the concentration that gives 50% inhibition. In general, half-life refers to the time needed for the level to fall by half in the phase considered. Higher therefore signals slow loss. A word on the EC50: it is the concentration giving half of the maximal effect.

Activity calls are given as the source filed them. Where a SMILES comes first, the peptide text is derived from it. Bridges are numbered along the chain shown (N, C = ends).

A short description of series [1]: Ratio of IC50 for inhibition of rat Nav1.7 stably expressed in cells to EC50 for antinociceptive activity against Sprague-Dawley rat model of thermal stimuli induced nociception assessed as concentration required for maximal tail flick withdrawal latency. It counts as functional.
Series [2] concerns the target Sodium channel protein type 4 subunit alpha (Homo sapiens, UniProt P35499). Put plainly: Inhibition of human Nav1.4 stably expressed in cells with train pulses to -20 mV at 0.1 Hz and holding potential of -95 mV by whole-cell Qube-automated patch clamp assay. The format is cell-based. A general note: In patch-clamp work, channel activity is measured electrically.
The target in series [3] is Sodium channel protein type 5 subunit alpha (Homo sapiens, UniProt Q14524). In words: Inhibition of human Nav1.5 by PatchXpress assay. It counts as toxicity.
The nature of series [4]: Inhibition of mast cell degranulation in Wistar Han rat peritoneal lavage mast cells assessed as inhibition histamine release by measuring lowest concentration at which histamine release observed measured after 30 mins. The format is functional. The following applies: 0.5 h.
A short description of series [5]: Half life in Wistar Han rat at 0.3 mg/kg, iv measured upto 24 hrs by LC/MS/MS analysis. The settings on record: in vivo. The format is ADME, organism-based.
The target of series [6] is Voltage-gated inwardly rectifying potassium channel KCNH2 (Homo sapiens, UniProt Q12809). In words: Inhibition of human ERG by PatchXpress assay. The format is toxicity.
Series [7] has as its target Sodium channel protein type 9 subunit alpha (Rattus norvegicus, UniProt O08562). In words: Inhibition of rat Nav1.7 stably expressed in cells with train pulses to -20 mV at 0.1 Hz and holding potential of -90 mV by whole-cell QPatch HT assay. The format is cell-based.
Series [8] concerns the target Sodium channel protein type 8 subunit alpha (Homo sapiens, UniProt Q9UQD0). In words: Inhibition of human Nav1.6 stably expressed in cells with train pulses to -20 mV at 0.1 Hz and holding potential of -85 mV by whole-cell Qube-automated patch clamp assay. The format is cell-based.
Series [9] deals with Rattus norvegicus. Put plainly: Antinociceptive activity against Sprague-Dawley rat model of thermal stimuli induced nociception assessed as increase in tail withdrawal latency administered subcutaneously as single dose measured up to 300 mins by tail flick test. The format is functional, organism-based. The settings on record: dose 1-2 mg/kg, time min <=300. In general terms: Thermal pain tests record how soon the animal reacts.

Series [10] has as its system Rattus norvegicus. Put plainly: Antinociceptive activity against Sprague-Dawley rat model of thermal stimuli induced nociception assessed as concentration required for maximal tail flick withdrawal latency administered subcutaneously as single dose measured up to 300 mins by tail flick test. It counts as functional, organism-based. The settings on record: 5 h.
In series [11] the target is Sodium channel protein type 2 subunit alpha (Homo sapiens, UniProt Q99250). Put plainly: Inhibition of human Nav1.2 stably expressed in cells with train pulses to -20 mV at 0.1 Hz and holding potential of -95 mV by Qube-automated patch clamp assay. The format is cell-based.
The target in series [12] is Voltage-dependent L-type calcium channel subunit alpha-1C (Homo sapiens, UniProt Q13936). Put plainly: Inhibition of human Cav1.2 stably expressed in HEK293 cells incubated for 30 mins in dark by Fluo-4 AM dye based FLIPR assay. It counts as cell-based.
For series [13], the target named is T1, Sodium channel protein type 9 subunit alpha (Homo sapiens, UniProt Q15858). Put plainly: Inhibition of human Nav1.7 stably expressed in cells with train pulses to -20 mV at 0.1 Hz and holding potential of -95 mV by Qube-automated patch clamp assay. It counts as cell-based.
The subject of series [14] is Rattus norvegicus. In words: Antinociceptive activity against Sprague-Dawley rat model of thermal stimuli induced nociception assessed as increase in tail withdrawal latency administered subcutaneously as single dose measured up to 24 hrs by tail flick test. The format is functional, organism-based. The following applies: time hrs <=24.
Series [15] relates to Mast cell. In words: Effect on mast cell degranulation in Wistar Han rat peritoneal lavage mast cells assessed as increase in maximum histamine level in plasma at upto 1 mg/kg, iv administered as bolus dose measured up to 24 hrs by LC/MS/MS analysis. The format is functional, organism-based. The settings on record: dose mg/kg <=1, time hrs <=24.
The target in series [16] is T1, Sodium channel protein type 9 subunit alpha. In words: Inhibition of human Nav1.7 stably expressed in cells with train pulses to -20 mV at 0.1 Hz and holding potential of -95 mV by whole-cell QPatch HT assay. The format is cell-based.
In series [17] the test system is Rattus norvegicus. Put plainly: Antinociceptive activity against Sprague-Dawley rat model of thermal stimuli induced nociception assessed as concentration required for maximal tail flick withdrawal latency administered subcutaneously as single dose measured up to 24 hrs by tail flick test. The format is functional, organism-based.
For series [18], the system named is Mast cell. In words: Effect on mast cell degranulation in Wistar Han rat peritoneal lavage mast cells assessed as fold increase in histamine level by measuring histamine Cmax in plasma at 0.3 mg/kg, iv administered as bolus dose measured up to 24 hrs by LC/MS/MS analysis relative to control. It counts as functional. The following applies: time hrs <=24.

Sodium channel protein type 2 subunit alpha, sequence (Q99250 whole entry): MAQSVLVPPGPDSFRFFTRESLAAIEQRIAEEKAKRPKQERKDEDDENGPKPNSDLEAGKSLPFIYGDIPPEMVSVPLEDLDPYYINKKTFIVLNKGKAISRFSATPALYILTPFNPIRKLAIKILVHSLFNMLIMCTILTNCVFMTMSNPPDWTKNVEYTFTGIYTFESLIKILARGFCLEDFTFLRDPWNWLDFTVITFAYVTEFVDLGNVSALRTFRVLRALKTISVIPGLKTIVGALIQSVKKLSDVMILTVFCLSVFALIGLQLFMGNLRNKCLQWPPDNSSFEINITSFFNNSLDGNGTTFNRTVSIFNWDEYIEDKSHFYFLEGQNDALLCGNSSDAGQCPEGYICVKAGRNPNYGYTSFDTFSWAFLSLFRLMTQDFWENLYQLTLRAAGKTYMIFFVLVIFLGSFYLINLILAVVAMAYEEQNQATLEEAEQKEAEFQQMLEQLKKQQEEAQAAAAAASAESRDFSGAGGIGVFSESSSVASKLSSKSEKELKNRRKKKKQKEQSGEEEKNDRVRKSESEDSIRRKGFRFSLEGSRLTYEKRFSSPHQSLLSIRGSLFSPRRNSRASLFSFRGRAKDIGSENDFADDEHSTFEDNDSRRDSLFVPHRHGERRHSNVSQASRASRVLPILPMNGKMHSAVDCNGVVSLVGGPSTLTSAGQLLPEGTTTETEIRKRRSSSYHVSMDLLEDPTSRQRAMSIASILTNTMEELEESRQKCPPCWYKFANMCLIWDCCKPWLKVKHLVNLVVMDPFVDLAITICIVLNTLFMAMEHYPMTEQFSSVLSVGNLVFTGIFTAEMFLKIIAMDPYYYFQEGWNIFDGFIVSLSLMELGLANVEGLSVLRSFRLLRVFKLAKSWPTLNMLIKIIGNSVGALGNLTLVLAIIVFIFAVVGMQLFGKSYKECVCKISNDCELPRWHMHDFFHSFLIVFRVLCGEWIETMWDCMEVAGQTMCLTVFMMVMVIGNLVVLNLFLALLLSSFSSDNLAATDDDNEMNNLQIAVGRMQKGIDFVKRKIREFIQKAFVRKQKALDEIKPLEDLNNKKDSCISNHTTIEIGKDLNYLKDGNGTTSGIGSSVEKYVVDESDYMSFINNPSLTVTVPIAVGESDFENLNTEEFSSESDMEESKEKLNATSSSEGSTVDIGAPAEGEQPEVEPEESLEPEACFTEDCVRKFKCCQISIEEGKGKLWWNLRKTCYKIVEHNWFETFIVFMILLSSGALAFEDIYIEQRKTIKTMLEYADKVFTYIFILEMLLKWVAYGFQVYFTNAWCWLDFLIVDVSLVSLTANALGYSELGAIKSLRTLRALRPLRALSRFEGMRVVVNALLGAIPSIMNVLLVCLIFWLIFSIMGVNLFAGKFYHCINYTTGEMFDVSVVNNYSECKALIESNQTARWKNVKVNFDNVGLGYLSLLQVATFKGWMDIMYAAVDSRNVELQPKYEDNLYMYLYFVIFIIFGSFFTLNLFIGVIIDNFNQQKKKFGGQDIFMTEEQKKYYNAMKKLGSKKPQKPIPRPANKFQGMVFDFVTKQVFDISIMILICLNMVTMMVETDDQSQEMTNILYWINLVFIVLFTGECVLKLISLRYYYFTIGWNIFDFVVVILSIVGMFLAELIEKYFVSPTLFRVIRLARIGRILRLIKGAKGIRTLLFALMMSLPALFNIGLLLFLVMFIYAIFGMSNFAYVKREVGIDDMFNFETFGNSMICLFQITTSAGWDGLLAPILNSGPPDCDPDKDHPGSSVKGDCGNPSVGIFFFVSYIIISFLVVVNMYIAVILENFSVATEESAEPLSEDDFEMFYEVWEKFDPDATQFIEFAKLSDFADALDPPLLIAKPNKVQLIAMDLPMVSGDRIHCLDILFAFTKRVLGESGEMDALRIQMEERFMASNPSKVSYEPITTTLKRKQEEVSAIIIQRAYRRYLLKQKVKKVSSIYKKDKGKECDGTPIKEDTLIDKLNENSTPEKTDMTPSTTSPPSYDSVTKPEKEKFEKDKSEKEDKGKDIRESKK
T1 sequence (Q15858 whole entry): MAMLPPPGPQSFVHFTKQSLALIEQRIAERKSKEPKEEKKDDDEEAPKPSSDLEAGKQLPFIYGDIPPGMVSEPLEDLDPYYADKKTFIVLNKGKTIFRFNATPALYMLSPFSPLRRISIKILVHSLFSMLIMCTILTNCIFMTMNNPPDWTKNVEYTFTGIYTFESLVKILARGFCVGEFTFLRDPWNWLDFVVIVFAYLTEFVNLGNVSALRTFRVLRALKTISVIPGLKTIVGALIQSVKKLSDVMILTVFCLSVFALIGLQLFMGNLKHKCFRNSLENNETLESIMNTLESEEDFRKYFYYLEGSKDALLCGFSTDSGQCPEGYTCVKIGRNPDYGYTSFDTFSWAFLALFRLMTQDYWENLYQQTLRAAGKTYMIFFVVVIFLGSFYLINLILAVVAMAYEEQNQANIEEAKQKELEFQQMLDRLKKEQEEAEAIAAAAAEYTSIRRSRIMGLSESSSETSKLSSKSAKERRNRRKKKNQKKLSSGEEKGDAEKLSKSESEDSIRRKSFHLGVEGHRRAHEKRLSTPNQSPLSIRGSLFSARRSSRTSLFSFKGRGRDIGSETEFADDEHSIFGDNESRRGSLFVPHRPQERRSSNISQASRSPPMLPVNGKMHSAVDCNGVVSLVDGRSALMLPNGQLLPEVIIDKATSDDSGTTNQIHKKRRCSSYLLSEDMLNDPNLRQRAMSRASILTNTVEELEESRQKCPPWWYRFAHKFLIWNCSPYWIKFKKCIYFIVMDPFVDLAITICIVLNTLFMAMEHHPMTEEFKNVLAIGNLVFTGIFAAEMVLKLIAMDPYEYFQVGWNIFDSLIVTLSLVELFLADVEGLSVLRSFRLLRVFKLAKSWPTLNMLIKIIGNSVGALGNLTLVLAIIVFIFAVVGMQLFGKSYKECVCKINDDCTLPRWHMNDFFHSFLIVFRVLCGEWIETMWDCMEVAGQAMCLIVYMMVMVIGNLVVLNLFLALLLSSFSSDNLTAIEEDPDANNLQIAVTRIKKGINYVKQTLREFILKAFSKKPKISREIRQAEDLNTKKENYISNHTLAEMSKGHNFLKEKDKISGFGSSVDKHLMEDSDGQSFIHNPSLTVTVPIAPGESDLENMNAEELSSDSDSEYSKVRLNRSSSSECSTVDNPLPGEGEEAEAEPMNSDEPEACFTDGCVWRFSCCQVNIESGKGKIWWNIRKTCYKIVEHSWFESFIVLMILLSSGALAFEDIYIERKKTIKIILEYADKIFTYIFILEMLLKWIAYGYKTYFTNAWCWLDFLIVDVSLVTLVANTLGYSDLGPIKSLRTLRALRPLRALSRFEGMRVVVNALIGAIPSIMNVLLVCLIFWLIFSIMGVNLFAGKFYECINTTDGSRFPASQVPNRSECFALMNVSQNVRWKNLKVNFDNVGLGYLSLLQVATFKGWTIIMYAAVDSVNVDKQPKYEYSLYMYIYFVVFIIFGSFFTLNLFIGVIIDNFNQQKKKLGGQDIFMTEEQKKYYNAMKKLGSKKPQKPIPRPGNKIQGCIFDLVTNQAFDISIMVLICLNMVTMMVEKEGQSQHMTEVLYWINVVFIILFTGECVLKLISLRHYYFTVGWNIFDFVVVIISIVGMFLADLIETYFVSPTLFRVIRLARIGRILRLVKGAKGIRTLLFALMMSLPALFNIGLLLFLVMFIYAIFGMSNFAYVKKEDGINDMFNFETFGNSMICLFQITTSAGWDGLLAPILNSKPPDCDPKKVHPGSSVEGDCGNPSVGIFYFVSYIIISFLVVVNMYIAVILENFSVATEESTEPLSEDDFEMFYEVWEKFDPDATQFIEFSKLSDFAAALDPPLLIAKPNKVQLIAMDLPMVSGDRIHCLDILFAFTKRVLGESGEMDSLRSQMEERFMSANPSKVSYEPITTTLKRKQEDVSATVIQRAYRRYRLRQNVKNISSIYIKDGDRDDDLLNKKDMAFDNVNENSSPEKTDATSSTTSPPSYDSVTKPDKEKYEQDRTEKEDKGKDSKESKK
Voltage-gated inwardly rectifying potassium channel KCNH2, sequence (Q12809 whole entry): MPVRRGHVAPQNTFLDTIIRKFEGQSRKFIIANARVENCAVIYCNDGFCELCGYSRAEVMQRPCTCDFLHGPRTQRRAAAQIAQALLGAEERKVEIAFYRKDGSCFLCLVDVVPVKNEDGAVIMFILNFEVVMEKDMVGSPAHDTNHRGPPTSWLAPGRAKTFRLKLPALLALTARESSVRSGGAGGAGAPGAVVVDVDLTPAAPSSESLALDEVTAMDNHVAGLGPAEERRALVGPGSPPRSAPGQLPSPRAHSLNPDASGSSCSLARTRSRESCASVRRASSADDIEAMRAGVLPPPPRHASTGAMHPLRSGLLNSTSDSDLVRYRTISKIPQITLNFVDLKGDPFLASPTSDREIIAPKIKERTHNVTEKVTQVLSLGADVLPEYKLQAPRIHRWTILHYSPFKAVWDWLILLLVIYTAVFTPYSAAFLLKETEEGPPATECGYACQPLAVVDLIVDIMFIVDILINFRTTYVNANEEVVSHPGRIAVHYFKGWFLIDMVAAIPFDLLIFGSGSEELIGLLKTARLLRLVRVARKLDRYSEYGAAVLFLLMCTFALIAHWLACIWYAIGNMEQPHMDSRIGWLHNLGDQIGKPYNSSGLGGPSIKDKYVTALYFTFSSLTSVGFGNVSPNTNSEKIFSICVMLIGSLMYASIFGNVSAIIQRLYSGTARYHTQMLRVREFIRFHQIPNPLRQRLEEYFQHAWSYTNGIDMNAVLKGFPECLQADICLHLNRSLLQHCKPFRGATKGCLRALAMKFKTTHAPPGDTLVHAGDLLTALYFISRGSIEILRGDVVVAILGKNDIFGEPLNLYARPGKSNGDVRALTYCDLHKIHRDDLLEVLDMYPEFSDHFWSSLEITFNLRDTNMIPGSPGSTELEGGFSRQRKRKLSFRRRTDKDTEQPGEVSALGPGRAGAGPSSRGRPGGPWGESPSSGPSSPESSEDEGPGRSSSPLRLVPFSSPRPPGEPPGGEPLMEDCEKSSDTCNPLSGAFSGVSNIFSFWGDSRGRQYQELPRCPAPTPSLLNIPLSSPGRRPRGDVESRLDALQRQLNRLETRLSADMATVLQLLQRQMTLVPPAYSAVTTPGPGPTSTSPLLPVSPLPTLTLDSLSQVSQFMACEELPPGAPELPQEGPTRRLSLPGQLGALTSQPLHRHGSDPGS

For `CSCC[C@@H]1NC(=O)CNC(=O)[C@H](CCC(=O)O)NC(=O)[C@@H]2CSSC[C@H](NC(=O)[C@@H](N)Cc3ccc(O)cc3)C(=O)N[C@@H](CCC(N)=O)C(=O)N[C@@H](CCCCN)C(=O)N[C@@H](Cc3c[nH]c4ccccc34)C(=O)N[C@@H](CCSC)C(=O)N[C@@H](Cc3c[nH]c4ccccc34)C(=O)N[C@@H]([C@@H](C)O)C(=O)N[C@H]3CSSC[C@H](NC(=O)[C@H](C(C)C)NC1=O)C(=O)N[C@@H](CCCNC(=N)N)C(=O)N[C@@H](CC(C)C)C(=O)N[C@@H](Cc1c[nH]c4ccccc14)C(=O)N[C@H](C(=O)N[C@@H](CCCCN)C(=O)N[C@@H](CCCCN)C(=O)N[C@@H](CCCCN)C(=O)N[C@@H](CC(C)C)C(=O)N[C@@H](Cc1c[nH]c4ccccc14)C(N)=O)CSSC[C@H](NC(=O)[C@H](CCCCN)NC(=O)[C@H](CCCNC(=N)N)NC(=O)[C@H](CCC(=O)O)NC(=O)[C@H](CO)NC(=O)[C@H](CC(=O)O)NC3=O)C(=O)N2`, the “fold change (FC)” value in [1] is on record as 50. Besides, the IC50 stood at 93 nM in series [2]; 180 nM in [3]; 22 nM in [6]; 1.3 nM in [7]; 75 nM in series [8]; 1500 nM in [11]. For the same compound, the IC50 in series [12] was found to be 1400 nM. Further, in series [4], the LED is 0.37 µM. The half-life in [5] is below 3 h. Also, the Activity entry in the series on Rattus norvegicus [9] was “Dose-Dependent Effect”. The EC50 in the series with Rattus norvegicus [10] is 56 nM.

`CC(=O)N[C@H]1CSSC[C@@H]2NC(=O)[C@@H]3CSSC[C@@H](C(=O)N[C@@H](CCCCN)C(=O)N[C@@H](CCCCN)C(=O)N[C@@H](CCCCN)C(=O)N[C@@H](CC(C)C)C(=O)N[C@@H](Cc4c[nH]c5ccccc45)C(N)=O)NC(=O)[C@H](Cc4c[nH]c5ccccc45)NC(=O)[C@H](CC(C)C)NC(=O)[C@H](CCCCN)NC(=O)[C@H](CSSC[C@H](NC(=O)[C@@H]4CCCN4C(=O)[C@H](CCC(=O)O)NC(=O)[C@H](CC(C)C)NC(=O)[C@H](Cc4ccccc4)NC(=O)[C@H](CCCCN)NC(=O)[C@H](CCC(N)=O)NC1=O)C(=O)N[C@@H](CC(=O)O)C(=O)N[C@@H](CO)C(=O)N[C@@H](CCC(=O)O)C(=O)N[C@@H](CCCNC(=N)N)C(=O)N[C@@H](CCCCN)C(=O)N3)NC(=O)[C@H](CCC(=O)O)NC(=O)[C@H](CC(C)C)NC(=O)CNC(=O)[C@H](CCC(=O)O)NC2=O` (Ac-CQKFLEPCDSERKCCEGLECKLWCKKKLW-NH2; disulfide 1-15, 8-20, 14-24): in [1], the “fold change (FC)” value turned out to be 50. The IC50 in series [2] was above 17000 nM; in series [13], 183 nM; in series [3], above 15000 nM; in series [16], 133 nM; in series [6], above 15000 nM; in [7] it was 18.8 nM. Also, the IC50 was above 17000 nM in [8], above 17000 nM in [11] and above 30000 nM in series [12]. In addition, in the series on Rattus norvegicus [14], the Activity result is “Dose-Dependent Effect”. In the series with Mast cell [15], the outcome was inactive. Moreover, the LED in [4] worked out at 30 µM. Moreover, the half-life in series [5] is below 3 h. Moreover, the EC50 in the series on Rattus norvegicus [17] was found to be 1620 nM.

With `CC(C)C[C@@H]1NC(=O)CNC(=O)[C@H](CCC(=O)O)NC(=O)[C@@H]2CSSC[C@H](NC(=O)[C@@H](N)Cc3ccc(O)cc3)C(=O)N[C@@H](CCC(N)=O)C(=O)N[C@@H](CCCCN)C(=O)N[C@@H](Cc3ccccc3)C(=O)N[C@@H](CC(C)C)C(=O)N[C@@H](C)C(=O)N3CCC[C@H]3C(=O)N[C@H]3CSSC[C@H](NC(=O)[C@H](C(C)C)NC1=O)C(=O)N[C@@H](CCCNC(=N)N)C(=O)N[C@@H](CC(C)C)C(=O)N[C@@H](Cc1c[nH]c4ccccc14)C(=O)N[C@H](C(=O)N[C@@H](CCCCN)C(=O)N[C@@H](CCCCN)C(=O)N[C@@H](CCCCN)C(=O)N[C@@H](CC(C)C)C(=O)N[C@@H](Cc1c[nH]c4ccccc14)C(N)=O)CSSC[C@H](NC(=O)[C@H](CCCCN)NC(=O)[C@H](CCCNC(=N)N)NC(=O)[C@H](CCC(=O)O)NC(=O)[C@H](CO)NC(=O)[C@H](CC(=O)O)NC3=O)C(=O)N2` (H-YCQKFLAPCDSERKCCEGLVCRLWCKKKLW-NH2; disulfide 2-16, 9-21, 15-25), the “fold change (FC)” value in series [1] came out at 50; in the series on Mast cell [18], 12. The IC50 in series [2] was 1770 nM; in series [13], 32 nM; in series [3], 2900 nM; in series [16], 5.9 nM; in [6] it was 780 nM; in [7] it was 8.3 nM. Further, the IC50 was 1190 nM in series [8], above 17000 nM in series [11] and above 30000 nM in series [12]. In the series on Rattus norvegicus [14], the Activity entry was “Dose-Dependent Effect”. The LED in [4] came to 3.3 µM. Also, the half-life in series [5] is below 3 h. The EC50 in the series with Rattus norvegicus [17] turned out to be 294 nM.
